Values joined by “and” are separate entries in the source; they are usually repeats but may differ in a detail not shown here. Equal values may be shown once. Read-outs that look alike come from different tables or passages of the source.
Columns and labels:
[1] = tested on: patients with severe OSA
Protocol: Ninety-seven (97) patients were enrolled in a prospective study of transoral robotic resection of the tongue base; the examples described below provided a secondary outcome measure of that study. […] The apnea-hypopnea index (AHI) for each patient was recorded from the sleep study. For each patient the saturation nadirs from the sleep study and DISE were paired for statistical analysis. […] The system utilizes the Cortinez pharmacokinetic model (Cortinez et al., Br J Anaesth. 2010; 105:448-56.) and the Johnson pharmacodynamic model (Johnson et al., Anesth Analg. 2008; 106:471-9.) to determine an infusion sequence comprised of a bolus, initial infusion, secondary infusion, and a time for transition from the initial to secondary infusion using the age and weight of the individual patient. This sequence minimizes the difference between the predicted probability of loss of responsiveness and a linear ramp. This is termed probability ramp control (PRC). A brief description of the mathematical approach can be found below. The MATLAB® program (an embodiment of the system) performed the calculations, indicated the time to perform the transition to the second infusion, and logged the time at which obstruction was noted.
All DISE studies were performed in an operating room with standard monitors and resuscitation equipment. A single otorhinolaryngologist performed each nasopharyngoscopy. […] All DISE patients received 2 liters per minute supplemental oxygen via a nasal cannula placed in the mouth. Supplemental oxygen was not used during polysomnography studies (as is typical for this procedure). Pulse oximetry data was recorded for subsequent analysis from a Nellcor pulse oximeter (Covidien, Mansfield, Mass.) at 30-second intervals by the DocuSys anesthesia record keeping system. […] A Baxter AS50 pump (Baxter, Deerfield, Ill.) was programmed with the initial bolus and infusion rates as determined by the control system. […] With the bronchoscope in position to observe the velopharynx, the sedation sequence proceeded until the onset of obstruction was noted. This was identified as the obstruction clinical endpoint. Observation of the pharynx was performed for a sufficient period to obtain images of the anatomic site(s) of obstruction. The infusion was then terminated and the patient allowed to recover. Patient characteristics and derived pharmacokinetic measures were assessed for normal distribution using the Lilliefors test at 5% significance level using the Statistics Toolbox of MATLAB® 8.0 (MathWorks, Natick, Mass.). […] Comparison of saturation nadirs from DISE and polysomnography was performed with both the paired and unpaired Student's t-test. […] No power analysis was performed for this study, as it was a secondary outcome measure for the larger study of transoral robotic surgery.

[2] = Nominal Cortinez model; cited from earlier work
[3] = tested on: patients scheduled for elective esophagogastroduodenoscopy (EGD); conditions: for Maximum Effect Site: Cortinez model estimate; for Maximum Effect Site / Target Effect Site / Time to target: median (IQR); for Target Effect Site: at loss of responsiveness to nasopharyngeal airway placement; for patients with oxygen saturation values below 90%: 100% oxygen via Robertazzi airway
Protocol: In addition to ASA standard monitors, respiratory inductance plethysmography (RIP) (Ambulatory Monitoring Inc, Armonk, N.Y.), SEDLine® patient state index (PSI) (Masimo Corp, Irvine, Calif.) and RAD87 pulse oximeter (Masimo Corp, Irvine, Calif.) were applied. All patients received 50 μg of fentanyl immediately prior to initiation of sedation. […] In the experimental arm, patient age and weight were used by the PRC algorithm to calculate bolus, infusion1, infusion2, and time for transition from infusion1 to infusion2. These numbers were reviewed by an investigator prior to initiation of sedation, and when the patient could tolerate airway placement, the software determined the maintenance infusion to maintain the effect-site concentration at the value existing at that time. Custom software written in Labview 2012 (National Instruments, Austin, Tex.) performed these calculations, transmitted the infusion rates to a Graseby 3400 pump (Marcal Medical, Millersville, Md.), and acquired data from the monitors.
All patients were preoxygenated using a Mapleson circuit at oxygen flows greater than 10 liters per minute. Following placement of the Robertazzi airway, the Mapleson circuit was connected to the airway via the connector from an endotracheal tube and the adjustable pressure limit valve closed, assuring continuous flow of 100% oxygen into the hypopharynx.
In experimental patients, the CRNA could request additional boluses or changes in infusion rates as they saw fit. […] This measure is reported in two ways. The first is termed “adjustment dose”, which is the cumulative absolute value of the difference between the intended trajectory and the actual administration. The second is the “intended ratio”, which is the ratio of the dose delivered on the intended trajectory and the actual administration. These measures are depicted in FIG. 7. In FIG. 7, the dotted line indicates the actual infusion rates, while the solid line indicates the intended trajectory (fixing the infusion rate at 300 μg/kg/min).
Ventilatory depression was assessed from respiratory inductance plethysmography signals. The signals were filtered by ensemble empirical mode decomposition employing 450 realizations and noise scaled to 40% of signal power. The dominant mode was used for the Huang-Hilbert Transform (HHT). Minute ventilation was computed as the product of the respiratory rate times the magnitude of volume change at one second intervals. Baseline ventilation was determined from several breaths prior to initiation of sedation; subsequent measurements were normalized by this baseline value. These values were grouped into one minute epochs and the median of values less than 100% obtained. Values above 100% were excluded for two reasons.
Oxygen saturation was acquired from the RAD87 at one second intervals, as was the patient state index. Obvious artifacts such as sensor dislodgement were excluded from analysis. Desaturation is reported as cumulative time below specified saturation in the range from 54% to 90%.
Effect site estimates were calculated using the Cortinez model employing the nominal values, with an adjoined effect compartment. The ke0 was chosen to yield a time to peak effect of 1.6 minutes. MATLAB® code for the state-space implementation of this model with observation of the effect site is available on the OpenTCI website.

[4] = tested on: endoscopic sedation patients; conditions: anesthetist-administered propofol sedation; cited from earlier work
[5] = tested on: DISE patients; conditions: cited from earlier work; for average time for the procedures: DeVito et al.

SMILES: CC(C)c1cccc(C(C)C)c1O [propofol]
- median saturation nadir during DISE ([1]; 2 liters per minute supplemental oxygen, median ± IQR, polysomnography 81.0±11.25%): 91.4±5.1%
- predicted effect-site concentration for obstruction ([1]; Cortinez model, ke0 for time to peak effect of 1.6 minutes): 4.2 ± 1.3 µg/mL
- median time to obstruction ([1]; DISE, PRC infusion, n=97, median (IQR)): 3.8 (IQR 1.2) minutes
- mean predicted effect-site concentration of propofol at obstruction ([1]; DISE, PRC infusion, Cortinez model with adjoined effect compartment): 4.2 ± 1.3 µg/mL
- adverse events ([1]; DISE, all patients): no adverse events
- mean time to obstruction ([1]; control system according to Example 1): 3.9 min
- lowest saturation measured ([1]; oxygen at 2 liters per minute via oral cannula): 74%
- median saturation nadir during DISE ([1]; sub-cohort of 7 patients whose nadir was not lower during polysomnography): 85%
- Q2 [2]: 3.2 L/min
- V3 [2]: 53.8 L
- Maximum Effect Site ([3]; Control (CRNA dosing)): 6.1 (3.5) μg/ml
- Target Effect Site ([3]; Control (CRNA dosing)): 4.8 (1.6) μg/ml
- Time to target ([3]; Control (CRNA dosing)): 2 (2.2) min
- Maximum Effect Site ([3]; Experimental (PRC)): 5.3 (4.6) NS μg/ml
- Target Effect Site ([3]; Experimental (PRC)): 4.9 (2.9) NS μg/ml
- Time to target ([3]; Experimental (PRC)): 3.9 (1.6) min and 3.9 (1.6) * min
- additional time to achieve endoscope placement ([3]; PRC system versus control): 111 s
- patients identified at targets below 3.9 μg/ml ([3]; control group (CRNA dosing)): No control patients
- patients with oxygen saturation values below 90% ([3]; control patients): 3
- patients identified at targets below 3.9 μg/ml ([3]; experimental group (PRC)): 5/20
- patients with targets below effect-site concentrations of 3.9 μg/ml ([3]; experimental group (PRC)): 20%
- patients with oxygen saturation values below 90% ([3]; experimental patients): 2
- BIS values, mean and standard deviation [4]: 72.1±15.1
- average time for the procedures ([5]; TCI group): 15.2 min
- patients demonstrating sedation instability ([5]; TCI group): 5%
- average time for the procedures ([5]; manual control group): 6.2 min
- patients demonstrating sedation instability ([5]; manual propofol bolus group): 65%

From US11062797B2, “Method and system for obtaining and using pharmacokinetic data in drug administration” (Continuous Precision Medicine, priority 2014, dated 2021)
